According to patent US20240066027A1 (DOMAIN THERAPEUTICS, priority 2020, published 2024):

How the values were obtained:
[1] = molecular target: T1, human PAR-2 (hPAR-2) receptor expressed in HEK-293 T cells in an endogenous manner (Homo sapiens, UniProt P55085); test: In vitro human PAR-2 functional antagonist activity using calcium assays (Fluo4AM, FLIPR Tetra); type: cell-based; settings: HEK-293 T cells stimulated by an EC80 of the 2-Furoyl-LIGRLO-NH2 peptide after 10 min incubation with compound; 20 concentrations, duplicate, two independent experiments
T1 construct: human PAR-2 (hPAR-2) receptor expressed in HEK-293 T cells in an endogenous manner; endogenous in cells; host or cells: HEK-293 T cells
T1 sequence (P55085 26-397): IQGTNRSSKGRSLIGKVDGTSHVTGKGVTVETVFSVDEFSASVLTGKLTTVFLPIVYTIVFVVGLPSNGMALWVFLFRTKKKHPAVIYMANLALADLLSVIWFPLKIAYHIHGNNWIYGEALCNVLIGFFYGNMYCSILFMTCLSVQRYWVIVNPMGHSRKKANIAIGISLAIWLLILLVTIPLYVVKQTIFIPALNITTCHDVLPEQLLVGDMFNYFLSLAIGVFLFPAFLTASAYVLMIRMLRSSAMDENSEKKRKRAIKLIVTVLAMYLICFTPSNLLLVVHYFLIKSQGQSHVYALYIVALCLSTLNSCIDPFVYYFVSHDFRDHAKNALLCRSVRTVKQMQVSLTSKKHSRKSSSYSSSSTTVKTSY
Outline: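 Fluo4AM-loaded HEK-293 T cells were exposed to compound for 10 min to read agonist effect. They were then stimulated with an EC80 of 2-Furoyl-LIGRLO-NH2 and intracellular calcium was recorded for 5 more min on FLIPR. Antagonism was scored against buffer basal and EC80 agonist-alone signals.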

Row | IC50 [1] [µM] | melting point [°C] | SMILES
1 | 0.02 to 10 | 207 to 212 | Cc1ccc(-c2cn(CC(C)C)c3nc(C(=O)N4CCNC(=O)C4(C)C)ccc23)cc1 [Example 51, 4-[1-isobutyl-3-(p-tolyl)pyrrolo[2,3-b]pyridine-6-carbonyl]-3,3-dimethyl-piperazin-2-one]
2 | 0.02 to 10 | 225 to 230 | Cc1ccccc1-c1cn(CC(C)C)c2nc(C(=O)N3CCNC(=O)C3(C)C)ccc12 [Example 52, 4-[1-isobutyl-3-(o-tolyl)pyrrolo[2,3-b]pyridine-6-carbonyl]-3,3-dimethyl-piperazin-2-one]
3 | 0.02 to 10 | 216 to 218 | CC(C)Cn1cc(-c2ccc(C(F)(F)F)cc2)c2ccc(C(=O)N3CCNC(=O)C3(C)C)nc21 [Example 55, 4-[1-isobutyl-3-[4-(trifluoromethyl)phenyl]pyrrolo[2,3-b]pyridine-6-carbonyl]-3,3-dimethyl-piperazin-2-one]
4 | 0.02 to 10 | 192 to 194 | CC(C)Cn1cc(-c2ccc(F)cc2)c2ccc(C(=O)N3CCNC(=O)C3(C)C)nc21 [Example 56, 4-[1-isobutyl-3-[4-fluorophenyl]pyrrolo[2,3-b]pyridine-6-carbonyl]-3,3-dimethyl-piperazin-2-one]
5 | > 10 | 127 to 139 | COc1cc(-n2nc(C(C)(C)C)c3nc(C(=O)N4CCN(c5cc(C)c(C(=O)O)c(C)n5)CC4(C)C)ccc32)ccc1Cl [Example 60, 6-(4-(3-(tert-butyl)-1-(4-chloro-3-methoxyphenyl)-1H-pyrazolo[4,3-b]pyridine-5-carbonyl)-3,3-dimethylpiperazin-1-yl)-2,4-dimethylnicotinic acid]
6 | > 10 | 185 to 190 | CC(C)Cc1nn(-c2ccc(C(F)(F)F)nc2)c2ccc(C(=O)N3CCNC(=O)C3(C)C)nc12 [Example 66, 4-(3-isobutyl-1-(6-(trifluoromethyl)pyridin-3-yl)-1H-pyrazolo[4,3-b]pyridine-5-carbonyl)-3,3-dimethylpiperazin-2-one]
7 | > 10 | 84 to 88 | O=C(c1cc2c(cn1)c(-c1ccc(Cl)c(F)c1)nn2CC(F)(F)F)N1CCCOCC1 [Example 89, (3-(4-chloro-3-fluorophenyl)-1-(2,2,2-trifluoroethyl)-1H-pyrazolo[4,3-c]pyridin-6-yl)(1,4-oxazepan-4-yl)methanone]
8 | > 10 | 189 to 192 | COc1ccc(-n2nc(CC(C)C)c3nc(C(=O)N4CCNC(=O)C4(C)C)ccc32)cn1 [Example 92, 4-(3-isobutyl-1-(6-methoxypyridin-3-yl)-1H-pyrazolo[4,3-b]pyridine-5-carbonyl)-3,3-dimethylpiperazin-2-one]
9 | > 10 | 182 to 185 | COc1ccc(-n2nc(CC(C)C)c3nc(C(=O)N4CCNC(=O)C4(C)C)ccc32)cc1 [Example 93, 4-(3-isobutyl-1-(4-methoxyphenyl)-1H-pyrazolo[4,3-b]pyridine-5-carbonyl)-3,3-dimethylpiperazin-2-one]
10 | 0.02 to 10 | 205 to 210 | CC(C)Cn1cc(-c2ccc(N(C)C)nc2)c2ccc(C(=O)N3CCNC(=O)C3(C)C)nc21 [Example 109, 4-(3-(6-(dimethylamino)pyridin-3-yl)-1-isobutyl-1H-pyrrolo[2,3-b]pyridine-6-carbonyl)-3,3-dimethylpiperazin-2-one]
11 | 0.02 to 10 | 260 to 265 | CC(C)Cn1cc(-c2ccc(C#N)nc2)c2ccc(C(=O)N3CCNC(=O)C3(C)C)nc21 [Example 110, 5-(6-(2,2-dimethyl-3-oxopiperazine-1-carbonyl)-1-isobutyl-1H-pyrrolo[2,3-b]pyridin-3-yl)picolinonitrile]
12 | 0.02 to 10 | 195 to 200 | COc1ccc(-c2cn(CC(C)C)c3nc(C(=O)N4CCNC(=O)C4(C)C)ccc23)cc1 [Example 111, 4-(1-isobutyl-3-(4-methoxyphenyl)-1H-pyrrolo[2,3-b]pyridine-6-carbonyl)-3,3-dimethylpiperazin-2-one]

The remaining lines, values behind:

Row | SMILES | IC50 [1] [µM] | melting point [°C]
13 | CC(C)Cn1cc(C2CCOCC2)c2ccc(C(=O)N3CCNC(=O)C3(C)C)nc21 [Example 46, 4-(1-isobutyl-3-(tetrahydro-2H-pyran-4-yl)-1H-pyrrolo[2,3-b]pyridine-6-carbonyl)-3,3-dimethylpiperazin-2-one] | > 10 | > 250
14 | CC(C)Cn1cc(C2=CCNCC2)c2ccc(C(=O)N3CCNC(=O)C3(C)C)nc21 [Example 47, 4-(3-(1,2,3,6-tetrahydropyridin-4-yl)-1-isobutyl-1H-pyrrolo[2,3-b]pyridine-6-carbonyl)-3,3-dimethylpiperazin-2-one] | > 10 | 140 to 145
15 | CC(C)Cn1cc(C2CCCCC2)c2ccc(C(=O)N3CCNC(=O)C3(C)C)nc21 [Example 48, 4-(3-cyclohexyl-1-isobutyl-1H-pyrrolo[2,3-b]pyridine-6-carbonyl)-3,3-dimethylpiperazin-2-one] | 0.02 to 10 | 226 to 229
16 | CC(C)Cn1cc(-c2ccccc2)c2ccc(C(=O)N3CCNC(=O)C3(C)C)nc21 [Example 49, 4-(1-isobutyl-3-phenyl-pyrrolo[2,3-b]pyridine-6-carbonyl)-3,3-dimethyl-piperazin-2-one] | 0.02 to 10 | 175 to 178
17 | CC(C)Cn1cc(-c2cccc(OC(F)(F)F)c2)c2ccc(C(=O)N3CCNC(=O)C3(C)C)nc21 [Example 57, 4-[1-isobutyl-3-[3-(trifluoromethoxy)phenyl]pyrrolo[2,3-b]pyridine-6-carbonyl]-3,3-dimethyl-piperazin-2-one] | 0.02 to 10 | 202 to 204
18 | CC(C)Cc1nn(-c2ccc(OC(F)(F)F)cc2)c2ccc(C(=O)N3CCNC(=O)C3(C)C)nc12 [Example 79, 4-(3-isobutyl-1-(4-(trifluoromethoxy)phenyl)-1H-pyrazolo[4,3-b]pyridine-5-carbonyl)-3,3-dimethylpiperazin-2-one] | 0.02 to 10 | 185 to 187
19 | CC(C)Cn1cc(N2CCCCC2)c2ccc(C(=O)N3CCNC(=O)C3(C)C)nc21 [Example 82, 4-(1-isobutyl-3-(piperidin-1-yl)-1H-pyrrolo[2,3-b]pyridine-6-carbonyl)-3,3-dimethylpiperazin-2-one] | 0.02 to 10 | 233 to 237
20 | O=C(c1cc2c(cn1)c(-c1ccc(Cl)c(F)c1)nn2CC(F)(F)F)N1CC2CCC(C1)O2 [Example 90, (8-oxa-3-azabicyclo[3.2.1]octan-3-yl)(3-(4-chloro-3-fluorophenyl)-1-(2,2,2-trifluoroethyl)-1H-pyrazolo[4,3-c]pyridin-6-yl)methanone] | > 10 | 198 to 200
21 | CC(C)Cn1cc(-c2cc(F)cc(F)c2)c2ccc(C(=O)N3CCNC(=O)C3(C)C)nc21 [Example 108, 4-(3-(3,5-difluorophenyl)-1-isobutyl-1H-pyrrolo[2,3-b]pyridine-6-carbonyl)-3,3-dimethylpiperazin-2-one] | 0.02 to 10 | 165 to 170
